The values that follow come from patent US9758485B2, “Compounds for controlling arthropods” (priority 2013, dated 2017).

The log P is a log measure of how a compound divides between an organic and an aqueous phase.

For data set [1], the system named is Boophilus microplus Parkhurst strain, SP-resistant. Description: Boophilus microplus - dip test. The format is in vivo. The conditions noted are these: application rate 100 ppm; dip of engorged adult female ticks; laying of fertile eggs, after 7 days. An outline of the steps: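 Efficacy reflects suppression of fertile egg laying: 0% means all eggs fertile, 100% none, read at 7 days, doubtful eggs kept ~42 days for larval hatch. Treatment was a complete dip of 8–10 engorged adult female ticks (SP-resistant Parkhurst strain) in a water dilution of a DMSO stock.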

Another data set has as its system Boophilus microplus. Description: Boophilus microplus - injection test. The format is in vivo. The conditions noted are these: application rate 20 μg/animal; injected into engorged adult female ticks; laying of fertile eggs, after 7 days. In a few lines: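 Compound dissolved in DMSO (10 mg per 0.5 ml, then diluted with DMSO to test concentration); 1 μl injected into the abdomen of 5 engorged adult female ticks, which are then held in a climate-controlled room. Efficacy judged after 7 days by laying of fertile eggs.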

Data set [2] relates to Ctenocephalides felis. Nature of the data set: Ctenocephalides felis - in vitro contact tests with adult cat fleas. Particulars: application rate 5 μg/cm^2 (=500 g/ha), after 48 h (dead or moribund). The format is in vivo. In a few lines:
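Efficacy, as share of dead or moribund adult Ctenocephalides felis, read 48 h after placing 5-10 fleas in tubes coated by acetone solution (5 μg/cm^2 at 900 ppm). Incubation horizontal at room temperature, ambient humidity; immobile or uncoordinated fleas scored.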

In the next data set the test system is Rhipicephalus sanguineus. Description: Rhipicephalus sanguineus - in vitro contact tests with adult brown dog ticks. In kind it is in vivo. An outline of the steps:
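Test compound was dissolved in acetone p.a. (9 mg in 1 ml, then diluted), and 250 μl were spread evenly over the inner surface of 25 ml test tubes on an orbital shaker at 30 rpm for 2 h. Once the solvent evaporated, 5-10 adult Rhipicephalus sanguineus ticks were sealed in, kept dark at room temperature, and after 48 h placed on a 45-50° C. hotplate to score dead or moribund ticks.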

Data set [3] has as its system Ctenocephalides felis. Description: Ctenocephalides felis - oral test. Particulars: application rate 100 ppm in citrated cattle blood; adult fleas; kill after 2 days. The format is in vivo. An outline of the steps: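 Steps: active ingredient dissolved in dimethyl sulphoxide; blood dilution prepared; fleas (about 20, unfed adults) held in gauze-closed chamber beneath a cylinder of treated blood; feeding via parafilm; kill percentage determined after 2 days.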

A further data set relates to Amblyomma hebraeum. Nature of the data set: Amblyomma hebraeum test (tick nymphs, immersion). The conditions noted are these: application rate 100 ppm; tick nymphs immersed for one minute; kill after 42 days. The format is in vivo. Here is the method: Solvent: dimethyl sulphoxide
To produce an appropriate active ingredient formulation, 10 mg of active ingredient are mixed with 0.5 ml of dimethyl sulphoxide, and the concentrate is diluted with water to the desired concentration.
Tick nymphs (Amblyomma hebraeum) are placed into perforated plastic beakers and immersed in the desired concentration for one minute. The ticks are transferred on filter paper into a Petri dish and stored in a climate-controlled cabinet.
After 42 days, the kill in % is determined. 100% means that all of the ticks have been killed; 0% means that none of the ticks have been killed.

The test system of a further data set is Lucilia cuprina. Description: Lucilia cuprina test. Particulars: application rate 100 ppm; L1 larvae in minced horsemeat; kill after 2 days. In kind it is in vivo. In a few lines:
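Mortality (%) of first-instar blowfly larvae, about 20 per vessel, recorded 2 days after exposure to compound-treated minced horsemeat. Compound dissolved in dimethyl sulphoxide, then water-diluted to the desired concentration.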

The subject of another data set is Musca domestica. Nature of the data set: Musca domestica test. The conditions noted are these: application rate 100 ppm; adult houseflies; kill after 2 days. In kind it is in vivo. An outline of the steps: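 First, 10 mg compound was taken up in 0.5 ml DMSO and then brought with water to the required concentration. This was applied with sugar solution to a sponge in vessels holding 10 adult flies; kill was assessed after 2 days.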

A short description of data set [4]: logP determination by HPLC on a reversed-phase column (C18), EEC Directive 79/831 Annex V.A8. The format is physicochemical. The conditions noted are these: for logP^a): HPLC-MS method a), Table I-T3; for log P: HPLC-MS, reversed-phase column (C18).
The mark [5] stands for this setting: application rate 5 μg/cm^2, after 48 h (dead or moribund).

As to `O=C(NC1CC1)c1cc(-c2cnn(-c3c(Cl)cc(C(F)(C(F)(F)F)C(F)(F)F)cc3C(F)(F)F)c2)ccc1Cl` [I-T3-56], the efficacy (in data set [1]; in the data set with Boophilus microplus; in the data set on Ctenocephalides felis [2]; in the data set on Rhipicephalus sanguineus (setting [5]); in the data set on Ctenocephalides felis [3]; in the data set on Amblyomma hebraeum) was 100% each time. Besides, the efficacy in the data set with Lucilia cuprina and with Musca domestica was 100% in each case. In data set [4], the “logP^a)” value is recorded as 4.4.
Take `O=C(NC1CC1)c1cc(-c2cnn(-c3c(F)cc(C(F)(C(F)(F)F)C(F)(F)F)cc3F)c2)ccc1Cl` [I-T3-61]: the efficacy was determined as 100% in data set [1]; 100% in the data set with Boophilus microplus; 100% with Ctenocephalides felis [2]; 100% in the data set with Rhipicephalus sanguineus (setting [5]); 100% with Ctenocephalides felis [3]; 80% in the data set on Amblyomma hebraeum. For the same compound, the efficacy in the data set with Lucilia cuprina and in the data set with Musca domestica was 100% throughout. For the same compound, the “logP^a)” value in data set [4] is listed as 4.0.
In the case of `Cc1cc(C(F)(C(F)(F)F)C(F)(F)F)cc(Cl)c1-n1cc(-c2ccc(Cl)c(C(=O)NC3CC3)c2)cn1` [I-T3-63], the efficacy (in data set [1]; in the data set on Boophilus microplus; with Ctenocephalides felis [2]; in the data set with Rhipicephalus sanguineus (setting [5]); in the data set on Ctenocephalides felis [3]; in the data set with Amblyomma hebraeum) was 100% each time. The efficacy with Lucilia cuprina and in the data set on Musca domestica was 100% each time. The “logP^a)” value in data set [4] is on record as 4.4.
Turning to `Cc1cc(C(F)(C(F)(F)F)C(F)(F)F)cc(Cl)c1-n1cc(-c2ccc(Cl)c(C(=O)NC3(C#N)CC3)c2)cn1` [I-T3-64], the efficacy in data set [1] is reported as 100%; with Boophilus microplus, 100%; with Ctenocephalides felis [2], 100%; in the data set on Rhipicephalus sanguineus (application rate 0.2 μg/cm^2, after 48 h (dead or moribund)), 80%; in the data set on Ctenocephalides felis [3], 100%; in the data set on Amblyomma hebraeum, 100%. The efficacy in the data set on Lucilia cuprina and in the data set on Musca domestica was 100% throughout. Besides, the “logP^a)” value in [4] came out at 4.2.
For `CCc1cc(C(F)(C(F)(F)F)C(F)(F)F)cc(Cl)c1-n1cc(-c2ccc(Cl)c(C(=O)NC3(C#N)CC3)c2)cn1` [I-T3-71], the efficacy (in data set [1]; with Boophilus microplus; in the data set on Ctenocephalides felis [2]; in the data set with Rhipicephalus sanguineus (setting [5]); in the data set with Ctenocephalides felis [3]; in the data set with Amblyomma hebraeum) was 100% throughout. Besides, the efficacy with Lucilia cuprina and in the data set with Musca domestica was 100% throughout. Besides, the “logP^a)” value in [4] was determined as 4.5.
On to `CCc1cc(C(F)(C(F)(F)F)C(F)(F)F)cc(Cl)c1-n1cc(-c2ccc(Cl)c(C(=O)NC3CC3)c2)cn1` [I-T3-72], for which the efficacy (in [1]; in the data set on Boophilus microplus; in the data set on Ctenocephalides felis [2]; in the data set with Rhipicephalus sanguineus (setting [5]); in the data set on Ctenocephalides felis [3]; in the data set on Amblyomma hebraeum) was 100% each time. For the same compound, the efficacy with Lucilia cuprina and with Musca domestica was 100% throughout. In [4], the “logP^a)” value came out at 4.6.
Consider `CCc1cc(C(F)(F)C(F)(F)F)cc(C)c1-n1cc(-c2ccc(Cl)c(C(=O)NC3CC3)c2)cn1` [I-T3-81], for which the efficacy (in data set [1]; with Boophilus microplus; with Ctenocephalides felis [2]; in the data set on Rhipicephalus sanguineus (setting [5]); in the data set with Ctenocephalides felis [3]; with Amblyomma hebraeum) was 100% each time. In addition, the values for the efficacy with Lucilia cuprina and in the data set with Musca domestica were 100% and 90%, respectively. In [4], the “logP^a)” value stood at 4.3.
Take `Cc1ncc(-c2cnn(-c3c(Cl)cc(C(F)(C(F)(F)F)C(F)(F)F)cc3Cl)c2)cc1C(=O)NC1CC1` [I-T3-91]: the efficacy (in [1]; in the data set with Boophilus microplus; with Ctenocephalides felis [2]; in the data set on Rhipicephalus sanguineus (setting [5]); in the data set with Ctenocephalides felis [3]; in the data set with Amblyomma hebraeum) was 100% in each case. The efficacy in the data set with Lucilia cuprina and in the data set with Musca domestica was 100% throughout. Moreover, in [4], the “log P” value is given as 3.3.
With `Cc1ncc(-c2cnn(-c3c(Cl)cc(C(F)(C(F)(F)F)C(F)(F)F)cc3Cl)c2)cc1C(=O)NC1(C#N)CC1` [I-T3-92], the efficacy is 100% in [1]; 100% in the data set on Boophilus microplus; 100% in the data set with Ctenocephalides felis [2]; 80% in the data set with Rhipicephalus sanguineus (setting [5]); 100% in the data set with Ctenocephalides felis [3]; 100% with Amblyomma hebraeum. The efficacy in the data set on Lucilia cuprina and in the data set on Musca domestica was 100% in each case. Besides, the “log P” value in [4] was determined as 3.4.
Regarding `Cc1cc(C(F)(C(F)(F)F)C(F)(F)F)cc(C)c1-n1cc(-c2cnc(C)c(C(=O)NC3CC3)c2)cn1` [I-T3-96], the efficacy (in data set [1]; in the data set on Boophilus microplus; with Ctenocephalides felis [2]; in the data set with Rhipicephalus sanguineus (setting [5]); with Ctenocephalides felis [3]; in the data set on Amblyomma hebraeum) was 100% throughout. Further, the efficacy in the data set on Lucilia cuprina and in the data set on Musca domestica was 100% in each case. Also, the log partition coefficient (log P) in data set [4] is on record as 3.3.
For `Cc1cc(C(F)(C(F)(F)F)C(F)(F)F)cc(C)c1-n1cc(-c2cnc(C)c(C(=O)NC3(C#N)CC3)c2)cn1` [I-T3-97], the efficacy (in [1]; in the data set with Boophilus microplus; in the data set on Ctenocephalides felis [2]; in the data set on Rhipicephalus sanguineus (setting [5]); in the data set on Ctenocephalides felis [3]; in the data set with Amblyomma hebraeum) was 100% each time. Besides, the efficacy with Lucilia cuprina and with Musca domestica was 100% each time. In data set [4], the “log P” value is recorded as 3.4.
Regarding `O=C(NC1CC1)c1cc(-c2cnn(-c3c(Cl)cc(C(F)(F)F)cc3Cl)c2)cnc1Cl` [I-T3-98], the efficacy (in [1]; in the data set on Boophilus microplus; in the data set with Ctenocephalides felis [2]; in the data set on Rhipicephalus sanguineus (setting [5]); in the data set with Ctenocephalides felis [3]; in the data set on Amblyomma hebraeum) was 100% in each case. Also, the efficacy turned out to be 100% with Lucilia cuprina and 90% with Musca domestica. In addition, the “log P” value in [4] was 3.1.
Consider `Cc1cc(C(F)(C(F)(F)F)C(F)(F)F)cc(C(F)(F)F)c1-n1cc(-c2cnc(Cl)c(C(=O)NC3CC3)c2)cn1` [I-T3-106], for which the efficacy (in data set [1]; with Boophilus microplus; in the data set on Ctenocephalides felis [2]; in the data set with Rhipicephalus sanguineus (setting [5]); in the data set with Ctenocephalides felis [3]; in the data set on Amblyomma hebraeum) was 100% throughout. The efficacy with Lucilia cuprina and in the data set on Musca domestica was 100% in each case. Further, the “log P” value in data set [4] is 4.0.
For the compound `Cc1cc(C(F)(C(F)(F)F)C(F)(F)F)cc(C(F)(F)F)c1-n1cc(-c2cnc(Cl)c(C(=O)NC3(C#N)CC3)c2)cn1` [I-T3-108], the efficacy was 100% in data set [1]; 100% in the data set with Boophilus microplus; 100% in the data set on Ctenocephalides felis [2]; 100% with Rhipicephalus sanguineus (application rate 1 μg/cm^2, after 48 h (dead or moribund)); 100% in the data set with Ctenocephalides felis [3]; 100% in the data set with Amblyomma hebraeum. For the same compound, the efficacy in the data set on Lucilia cuprina and in the data set on Musca domestica was 100% each time. Also, the “log P” value in [4] is reported as 4.0.
Turning to `CCc1cc(C(F)(C(F)(F)F)C(F)(F)F)cc(C)c1-n1cc(-c2cnc(Cl)c(C(=O)NC3CC3)c2)cn1` [I-T3-109], the efficacy (in data set [1]; with Boophilus microplus; with Ctenocephalides felis [2]; in the data set with Rhipicephalus sanguineus (setting [5]); with Ctenocephalides felis [3]; in the data set on Amblyomma hebraeum) was 100% each time. Moreover, the efficacy with Lucilia cuprina and in the data set on Musca domestica was 100% in each case. Further, in [4], the log partition coefficient (log P) is 4.2.
